# Assay results taken from patent US8853221B2, “Compounds of estrogen-related receptor modulators and the uses thereof” (Guangzhou Institute of Biomedicine & Health, Chinese …, priority 2008, dated 2014).
# Tests used:
# GAL-hERRα = molecular target: T1, GAL-hERRα (Homo sapiens, UniProt P11474); experiment: GAL4-ERRα ligand binding domain luciferase reporter activation assay in 293 FT cells co-transfected with CMV-PGC-1α; type: cell-based; conditions: in the presence of CMV-PGC-1α, approximately 24 hours, increasing concentrations (FIG. 1)
# T1 construct: expressed in transfected cells; host or cells: 293 FT cells
# T1 sequence (P11474 193-421 limits assumed): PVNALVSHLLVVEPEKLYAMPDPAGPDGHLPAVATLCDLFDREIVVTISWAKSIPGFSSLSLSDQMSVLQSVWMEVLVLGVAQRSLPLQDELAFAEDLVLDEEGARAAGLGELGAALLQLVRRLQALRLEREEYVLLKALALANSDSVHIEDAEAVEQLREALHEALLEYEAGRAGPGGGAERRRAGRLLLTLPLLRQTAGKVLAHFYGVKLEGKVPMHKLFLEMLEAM
# Source text: To test the effect of the compounds on ERR and other nuclear hormone receptors, 293 FT cells were transiently transfected with expression vectors for the receptors along with appropriate reporter constructs according to methods known in the art. Suitable reporter gene constructs are well known to skilled workers in the fields of biochemistry and molecular biology. Other vectors known in the art can be used in the methods of the present invention. GAL4 fusions containing receptor ligand binding domain fragments were constructed by fusing human ERRα, human ERRβ and murine ERRγ ligand binding domain sequences to the C-terminal end of the yeast GAL4 DNA binding domain (amino acids 1-147 accession X85976) to form the expression vectors GAL-hERRα, GAL-L-hERRβ and Gal-mERRγ, respectively. pGAL is a control containing the yeast GAL4 DNA binding domain without receptor sequences. CMV-PGC-1α contains and expressed the PGC-1α coding sequences derived from PGC-1α (accession NM--008904). 293 FT cells for the activation assays were grown in Dulbecco's modified Eagle's medium supplemented with 10% resin charcoal-stripped fetal bovine serum at 37° C. in 5% CO2. One day prior to transfection, cells were plated to 50-80% confluence using phenol red free DMEM-FBS. The cells were transiently transfected by lipofection but other methods of transfection of DNA into cells can be utilized without deviating from the spirit of the invention. Luciferase reporter construct UASgx4-TK-Luc and cytomegalovirus-driven expression vector p-GAL, GAL-hERRα, GAL-L-hERRβ or Gal-mERRγ were added with CMV-PGC-1α. The cells were treated for approximately 24 hours with phenol red free DMEM-FBS containing 0.01% DMSO (control) or 0.01% DMSO with increasing concentrations of DK compounds. […] (FIG. 1).
# [1] = tested on: PGC1α-promoter reporter gene driven by ERRα; experiment: PGC1α-promoter luciferase reporter gene assay driven by ERRα in HeLa cells; type: cell-based, human; conditions: 10 uM, approximately 24 hours (FIG. 2)
# Source text: (§1) HeLa were transiently transfected with the pGL3-promoter (Promega) derivative pGL3-PGC1α-promoter or PDK4-Promega and expression vector for ERRα. The Renilla-Luciferase pRL-CMV Vector (Promega) was included as a control for transfection efficiency. The full length human ERRα was cloned into the expression vector pCMV. The pGL3-PGC1α-promoter or PDK4-promoter was generated by cloning an insert derived from a PCR reaction using human genomic DNA as template and primers based on the 2.6 kbp upstream sequence of the PGC1α transcriptional start site.
# (§2) HeLa cells for the activation assays were grown in Dulbecco's modified Eagle's medium supplemented with 10% fetal bovine serum at 37° C. in 5% CO2. One day prior to transfection, cells were plated to 50-80% confluence using DMEM-FBS. The cells were transiently transfected by lipofection but other methods of transfection of DNA into cells can be utilized without deviating from the spirit of the invention. Luciferase reporter construct pGL3-PGC1α-promoter or PDK4-promoter and cytomegalovirus-driven expression vector pCMV or pCMV-hERRα were added. The cells were treated for approximately 24 hours with DMEM-FBS containing 0.01% DMSO (control) or 0.01% DMSO with 10 uM DK45 compound.
# [2] = tested on: PDK4-promoter reporter gene driven by ERRα; experiment: PDK4-promoter luciferase reporter gene assay driven by ERRα in HeLa cells; type: cell-based, human; conditions: 10 uM, approximately 24 hours (FIG. 2)
# Source text: as §1, §2
# high-fat-diet mice [3] = experiment: Oral glucose tolerance test in high-fat-diet mice; type: in vivo, C57BL/J6 mice; conditions: 5 mg/kg/day by gavage for two weeks, fasted 5 h (FIG. 3)
# Description: (§3) Seven weeks old male C57BL/J6 mice were either fed chow diet or a high-fat-diet with 60% calories from lard for 10 weeks. Compounds were administered to animals by gavage for two weeks at different doses. Four groups of animals (n=5) were administered with either vehicle, 5 mg/kg/day rosiglitazone, or 5 mg/kg/day DK45. Animals were fasted for 5 h, and then orally fed glucose. Blood samples were withdrawn at time 0, 15, 30, 60 and 120 min. Blood glucose level was measured by monitor (Accu-chek Advantage, Roche). The changes in blood glucose level were plotted against time and the areas under the curve were calculated for the different groups.
# high-fat-diet mice [4] = experiment: Non-fasting blood glucose level in high-fat-diet mice; type: in vivo, C57BL/J6 mice; conditions: 5 mg/kg/day by gavage for two weeks, non-fasting (FIG. 4)
# high-fat-diet mice [5] = experiment: Insulin resistance (insulin tolerance) test in high-fat-diet mice; type: in vivo, C57BL/J6 mice; conditions: 5 mg/kg/day by gavage, fasted 5 h, insulin 0.75 IU/kg (FIG. 5)
# Description: as §3
# In addition, insullin resistance test was administered. Animals were fasted for 5 h, and then injected insulin (0.75 IU/kg). Blood samples were withdrawn at time 0, 15, 30, 60 and 120 min. Blood glucose level was measured by monitor (Accu-chek Advantage, Roche). The changes in blood glucose level were plotted against time and the areas under the curve were calculated for the different groups.
# (§4) The blood insulin levels of fasting and non-fasting treatments also indicate that DK45 at 5 mg/kg/day reduced the blood insulin levels of non-fasting treatments (FIG. 6).
# high-fat-diet mice [6] = experiment: Blood insulin level in high-fat-diet mice; type: in vivo, C57BL/J6 mice; conditions: 5 mg/kg/day by gavage, non-fasting (FIG. 6)
# Description: as §3, §4
# high-fat-diet mice [7] = experiment: Serum free fatty acid, cholesterol and triglyceride levels in high-fat-diet mice; type: in vivo, C57BL/J6 mice; conditions: 5 mg/kg/day
# Description: as §3
# Moreover, DK45 at 5 mg/kg/day reduced serum free fatty acid (FIG. 7), cholesterol (FIG. 8), and triglyceride levels (FIG. 9) of non-fasting treatments.
smiles,measurement,setting,value
"COc1ccn2c(=O)cc(-c3ccccc3)nc2c1 [DK36, 8-methoxy-2-phenyl-4H-pyrido[1,2-a]pyrimidin-4-one]",activity of GAL-hERRα on reporter construct UASgx4-TK-Luc,GAL-hERRα,dose-dependently enhances
"CC(C)Oc1ccn2c(=O)cc(-c3ccccc3)nc2c1 [DK41, 8-isopropoxy-2-phenyl-4H-pyrido[1,2-a]pyrimidin-4-one]",activity of GAL-hERRα on reporter construct UASgx4-TK-Luc,GAL-hERRα,dose-dependently enhances
"CCc1ccn2c(=O)cc(-c3ccccc3)nc2c1 [DK45, 8-ethyl-2-phenyl-4H-pyrido[1,2-a]pyrimidin-4-one]",activity of GAL-hERRα on reporter construct UASgx4-TK-Luc,GAL-hERRα,dose-dependently enhances
same,PGC1α-promoter reporter gene driven by ERRα,[1],enhancement
same,PDK4-promoter reporter gene driven by ERRα,[2],enhancement
same,area under the curve of the oral glucose tolerance test,high-fat-diet mice [3],reduced
same,"blood glucose levels, non-fasting",high-fat-diet mice [4],reduced
same,area under the curve of the insulin resistance test,high-fat-diet mice [5],reduced
same,blood insulin levels of non-fasting treatments,high-fat-diet mice [6],reduced
same,serum free fatty acid,high-fat-diet mice [7]; non-fasting (FIG. 7),reduced
same,serum cholesterol,high-fat-diet mice [7]; non-fasting (FIG. 8),reduced
same,serum triglyceride levels,high-fat-diet mice [7]; non-fasting (FIG. 9),reduced
